Source: patent US20230295131A1, “INHIBITORS OF RHO-ASSOCIATED COILED-COIL KINASE” (Angion Biomedica Corp., priority 2020, published 2023)
Like-named read-outs stand apart in the source and are kept apart here.

How the values were obtained:
HCC = HCC patients at advanced stage; cited from earlier work
[1] = 12-16 weeks of dosing in healthy volunteers and patients; cited from earlier work
[2] = tested on: murine autoimmune disease; settings: KD025 administration; cited from earlier work
fibroblasts = fibroblasts treated with KD025; cited from earlier work
[3] = tested on: chronic hepatitis C infection; settings: cited from earlier work
Hepatic stellate cells = assay: Gel contraction assay (TGFβ1-induced); assay type: cell-based; settings: test compound at 100 μM, 1 hour pretreatment, TGFβ1 24 hours
Protocol: Hepatic stellate cells were plated onto collagen coated plates and pretreated with test compound (at 100 μM) for 1 hour. TGFβ1 is then added for 24 hours, and images are taken.

ROCK2 = target: T1, ROCK2 (Homo sapiens, UniProt O75116); assay: ROCK2 kinase binding affinity, DiscoverX KINOMEscan KdELECT; settings: for Kd: KINOMEscan KdELECT, 11-point 3-fold dilution, read-out: Kd (μM) ROCK2; for ROCK2 Selectivity: selectivity for ROCK2 over ROCK1 from Kd
T1 construct: T7 phage fusion (kinase-tagged phage) or DNA tag for qPCR detection
T1 sequence (O75116 whole entry, the tested form may be a part): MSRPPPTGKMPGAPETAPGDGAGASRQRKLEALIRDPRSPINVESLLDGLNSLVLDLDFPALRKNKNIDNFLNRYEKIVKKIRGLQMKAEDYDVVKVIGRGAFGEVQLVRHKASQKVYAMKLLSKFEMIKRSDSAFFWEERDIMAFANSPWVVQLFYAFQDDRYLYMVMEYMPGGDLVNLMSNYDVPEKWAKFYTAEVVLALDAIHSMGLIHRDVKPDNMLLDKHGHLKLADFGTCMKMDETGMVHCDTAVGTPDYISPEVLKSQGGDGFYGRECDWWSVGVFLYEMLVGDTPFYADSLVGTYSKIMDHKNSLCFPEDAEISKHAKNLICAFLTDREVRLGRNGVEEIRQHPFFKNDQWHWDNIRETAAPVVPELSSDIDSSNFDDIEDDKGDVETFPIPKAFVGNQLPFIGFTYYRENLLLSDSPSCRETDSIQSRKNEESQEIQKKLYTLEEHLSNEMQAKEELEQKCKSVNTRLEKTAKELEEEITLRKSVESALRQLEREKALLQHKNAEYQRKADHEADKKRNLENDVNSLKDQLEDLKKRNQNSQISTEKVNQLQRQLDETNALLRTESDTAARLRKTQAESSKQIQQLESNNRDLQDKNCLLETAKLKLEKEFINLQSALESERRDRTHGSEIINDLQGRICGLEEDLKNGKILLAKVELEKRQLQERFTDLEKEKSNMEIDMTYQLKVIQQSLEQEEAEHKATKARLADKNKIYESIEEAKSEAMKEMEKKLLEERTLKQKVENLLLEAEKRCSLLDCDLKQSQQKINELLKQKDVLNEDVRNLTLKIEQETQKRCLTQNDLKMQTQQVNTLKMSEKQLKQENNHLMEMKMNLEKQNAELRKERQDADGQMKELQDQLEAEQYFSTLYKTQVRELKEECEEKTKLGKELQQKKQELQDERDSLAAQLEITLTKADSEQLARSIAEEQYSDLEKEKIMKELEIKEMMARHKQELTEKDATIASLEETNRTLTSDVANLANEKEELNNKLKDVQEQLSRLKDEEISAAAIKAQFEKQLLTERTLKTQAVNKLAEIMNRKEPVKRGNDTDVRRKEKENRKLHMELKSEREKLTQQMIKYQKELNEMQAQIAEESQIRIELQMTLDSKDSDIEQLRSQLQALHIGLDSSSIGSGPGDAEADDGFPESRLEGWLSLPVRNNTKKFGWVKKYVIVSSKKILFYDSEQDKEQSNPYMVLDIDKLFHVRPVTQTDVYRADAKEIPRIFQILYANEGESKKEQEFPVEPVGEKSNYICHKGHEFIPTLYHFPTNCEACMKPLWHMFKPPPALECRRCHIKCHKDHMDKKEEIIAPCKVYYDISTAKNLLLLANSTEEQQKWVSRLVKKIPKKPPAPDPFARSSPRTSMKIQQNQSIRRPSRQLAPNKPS
Outline: (§1)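 Competition binding of DNA- or phage-tagged kinase to immobilised ligand beads, with bound kinase quantified by qPCR of eluates.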

ROCK1 = target: T2, ROCK1 (Homo sapiens, UniProt Q13464); assay: ROCK1 kinase binding affinity, DiscoverX KINOMEscan KdELECT; settings: 11-point 3-fold dilution
T2 construct: T7 phage fusion (kinase-tagged phage) or DNA tag for qPCR detection
T2 sequence (Q13464 whole entry, the tested form may be a part): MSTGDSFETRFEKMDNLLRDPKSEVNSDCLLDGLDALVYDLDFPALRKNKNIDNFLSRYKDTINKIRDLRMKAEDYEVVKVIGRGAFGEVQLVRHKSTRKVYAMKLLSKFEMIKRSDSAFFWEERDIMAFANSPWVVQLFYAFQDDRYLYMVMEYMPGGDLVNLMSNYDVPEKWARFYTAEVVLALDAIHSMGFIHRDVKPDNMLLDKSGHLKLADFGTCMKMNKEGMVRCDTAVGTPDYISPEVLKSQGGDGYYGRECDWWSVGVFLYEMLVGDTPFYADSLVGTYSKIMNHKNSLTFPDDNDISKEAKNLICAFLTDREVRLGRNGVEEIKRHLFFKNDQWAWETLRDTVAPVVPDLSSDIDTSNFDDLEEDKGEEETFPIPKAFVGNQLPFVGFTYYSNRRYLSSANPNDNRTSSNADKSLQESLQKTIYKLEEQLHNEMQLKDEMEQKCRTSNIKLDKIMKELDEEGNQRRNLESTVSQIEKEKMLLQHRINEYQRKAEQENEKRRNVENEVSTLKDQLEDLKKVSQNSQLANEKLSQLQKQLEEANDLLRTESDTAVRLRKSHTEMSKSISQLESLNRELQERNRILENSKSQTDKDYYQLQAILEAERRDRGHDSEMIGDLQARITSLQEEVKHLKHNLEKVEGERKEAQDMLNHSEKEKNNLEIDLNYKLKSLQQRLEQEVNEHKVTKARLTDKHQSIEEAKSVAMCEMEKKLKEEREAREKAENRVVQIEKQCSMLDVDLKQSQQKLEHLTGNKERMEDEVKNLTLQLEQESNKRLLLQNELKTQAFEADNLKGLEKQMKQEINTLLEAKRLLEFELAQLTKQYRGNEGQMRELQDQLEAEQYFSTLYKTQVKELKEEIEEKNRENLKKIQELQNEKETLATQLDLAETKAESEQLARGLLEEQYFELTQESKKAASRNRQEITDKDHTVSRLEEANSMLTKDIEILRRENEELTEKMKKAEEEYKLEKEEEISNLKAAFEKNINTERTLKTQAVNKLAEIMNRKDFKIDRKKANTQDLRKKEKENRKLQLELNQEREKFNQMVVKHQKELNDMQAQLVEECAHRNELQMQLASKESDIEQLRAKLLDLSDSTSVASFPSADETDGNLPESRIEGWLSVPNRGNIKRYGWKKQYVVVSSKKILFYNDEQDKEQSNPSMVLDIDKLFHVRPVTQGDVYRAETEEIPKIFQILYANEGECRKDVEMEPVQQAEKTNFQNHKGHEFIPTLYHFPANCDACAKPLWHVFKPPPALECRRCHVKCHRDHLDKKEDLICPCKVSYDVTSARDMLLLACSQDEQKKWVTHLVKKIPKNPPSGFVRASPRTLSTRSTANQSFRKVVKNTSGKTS
Outline: as §1

## CNC(=O)c1cc(Oc2ccc(NC(=O)Nc3ccc(Cl)c(C(F)(F)F)c3)cc2)ccn1 [sorafenib]
HCC
  extension of median survival: less than 3 months

## CC(C)NC(=O)COc1cccc(-c2nc(Nc3ccc4[nH]ncc4c3)c3ccccc3n2)c1 [KD025]
[1]
  hemodynamic or other side effects: no hemodynamic or other side effects
[2]
  expression of pro-inflammatory, fibrosis-linked cytokines: decreased
  murine autoimmune disease: mitigated
fibroblasts
  expression of profibrotic mRNA including CTGF: decreased

## interferon
[3]; in combination with ribavirin
  response to antiviral therapy: ~50%
[3]; used alone
  response to antiviral therapy: ~20%

## O[C@H]1CC[C@@H](Nc2nccc(-c3nccc(C#Cc4ccc5[nH]nc(F)c5c4)n3)n2)CC1 [Ex. 93, (1s,4s)-4-((4-((3-Fluoro-1H-Indazol-5-yl)ethynyl)-[2,4′-bipyrimidin]-2′-yl)amino)cyclohexanol]
Hepatic stellate cells
  TGFβ1-induced gel contraction in hepatic stellate cells: significantly attenuated
ROCK2
  Kd: < 0.01 µM
  ROCK2 Selectivity: **** (>500-fold selectivity for ROCK2)
ROCK1
  Kd: 1 to 9.9 µM

## O[C@H]1CC[C@H](Nc2nccc(-c3nccc(C#Cc4ccc5[nH]ncc5c4)n3)n2)CC1 [Ex. 63, (1r,4r)-4-((4-((1H-Indazol-5-yl)ethynyl)-[2,4′-bipyrimidin]-2′-yl)amino)cyclohexanol]
ROCK2
  Kd: < 0.01 µM
  ROCK2 Selectivity: *** (151 to 500-fold selectivity for ROCK2)
ROCK1
  Kd: 1 to 9.9 µM

## CC(Nc1nccc(-c2nccc(C#Cc3ccc4[nH]ncc4c3)n2)n1)c1ccc(F)cn1 (centres unmarked) [Ex. 28, 4-((1H-Indazol-5-yl)ethynyl)-N-(1-(5-fluoropyridin-2-yl)ethyl)-[2,4′-bipyrimidin]-2′-amine]
ROCK2
  Kd: 0.01 to 0.099 µM
  ROCK2 Selectivity: * (<50-fold selectivity for ROCK2)
ROCK1
  Kd: 1 to 9.9 µM

## Fc1cc(CNc2nccc(-c3nccc(C#Cc4ccc5[nH]nc(F)c5c4)n3)n2)ccn1 [Ex. 61, 4-((3-Fluoro-1H-indazol-5-yl)ethynyl)-N-((2-fluoropyridin-4-yl)methyl)-[2,4′-bipyrimidin]-2′-amine]
ROCK2
  Kd: 0.01 to 0.099 µM
  ROCK2 Selectivity: *** (151 to 500-fold selectivity for ROCK2)
ROCK1
  Kd: 10 to 100 µM

## C(#Cc1ccnc(-c2ccnc(NCC3CCCN3)n2)n1)c1ccc2[nH]ncc2c1 (centres unmarked) [Ex. 5, 4-((1H-Indazol-5-yl)ethynyl)-N-(pyrrolidin-2-ylmethyl)-[2,4′-bipyrimidin]-2′-amine]
ROCK2
  Kd: 0.01 to 0.099 µM
  ROCK2 Selectivity: * (<50-fold selectivity for ROCK2)
ROCK1
  Kd: 0.1 to 0.99 µM

## C(#Cc1ccnc(-c2ccnc(NC[C@H]3CCOC3)n2)n1)c1ccc2[nH]ncc2c1 [Ex. 69, (R)-4-((1H-Indazol-5-yl)ethynyl)-N-((tetrahydrofuran-3-yl)methyl)-[2,4′-bipyrimidin]-2′-amine]
ROCK2
  Kd: < 0.01 µM
  ROCK2 Selectivity: *** (151 to 500-fold selectivity for ROCK2)
ROCK1
  Kd: 1 to 9.9 µM

## COc1cc(F)ccc1CNc1nccc(-c2nccc(C#Cc3ccc4[nH]ncc4c3)n2)n1 [Ex. 12, 4-((1H-Indazol-5-yl)ethynyl)-N-(4-fluoro-2-methoxybenzyl)-[2,4′-bipyrimidin]-2′-amine]
ROCK2
  Kd: 0.01 to 0.099 µM
  ROCK2 Selectivity: *** (151 to 500-fold selectivity for ROCK2)
ROCK1
  Kd: 1 to 9.9 µM

## Fc1ccc(CNc2nccc(-c3nccc(C#Cc4ccc5[nH]ncc5c4)n3)n2)cn1 [Ex. 47, 4-((1H-Indazol-5-yl)ethynyl)-N-((6-fluoropyridin-3-yl)methyl)-[2,4′-bipyrimidin]-2′-amine]
ROCK2
  Kd: 0.01 to 0.099 µM
  ROCK2 Selectivity: ** (50 to 150-fold selectivity for ROCK2)
ROCK1
  Kd: 1 to 9.9 µM

## O=c1[nH]cccc1CNc1nccc(-c2nccc(C#Cc3ccc4[nH]ncc4c3)n2)n1 [Ex. 21, 3-(((4-((1H-Indazol-5-yl)ethynyl)-[2,4′-bipyrimidin]-2′-yl)amino)methyl)pyridin-2(1H)-one]
ROCK2
  Kd: 0.01 to 0.099 µM
  ROCK2 Selectivity: ** (50 to 150-fold selectivity for ROCK2)
ROCK1
  Kd: 0.1 to 0.99 µM

## CN(C)C(=O)CNc1nccc(-c2nccc(C#Cc3ccc4[nH]ncc4c3)n2)n1 [Ex. 19, 2-((4-((1H-Indazol-5-yl)ethynyl)-[2,4′-bipyrimidin]-2′-yl)amino)-N,N-dimethylacetamide]
ROCK2
  Kd: 0.01 to 0.099 µM
  ROCK2 Selectivity: ** (50 to 150-fold selectivity for ROCK2)
ROCK1
  Kd: 0.1 to 0.99 µM

## C(#Cc1ccnc(-c2ccnc(NC[C@@H]3CCCO3)n2)n1)c1ccc2[nH]ncc2c1 [Ex. 35, (S)-4-((1H-Indazol-5-yl)ethynyl)-N-((tetrahydrofuran-2-yl)methyl)-[2,4′-bipyrimidin]-2′-amine]
ROCK2
  Kd: < 0.01 µM
  ROCK2 Selectivity: *** (151 to 500-fold selectivity for ROCK2)
ROCK1
  Kd: 0.1 to 0.99 µM

## Fc1cccc(CNc2nccc(-c3nccc(C#Cc4ccc5[nH]ncc5c4)n3)n2)n1 [Ex. 32, 4-((1H-Indazol-5-yl)ethynyl)-N-((6-fluoropyridin-2-yl)methyl)-[2,4′-bipyrimidin]-2′-amine]
ROCK2
  Kd: 0.01 to 0.099 µM
  ROCK2 Selectivity: ** (50 to 150-fold selectivity for ROCK2)
ROCK1
  Kd: 1 to 9.9 µM

## CNC(=O)CNc1nccc(-c2nccc(C#Cc3ccc4[nH]ncc4c3)n2)n1 [Ex. 55, 2-((4-((1H-Indazol-5-yl)ethynyl)-[2,4′-bipyrimidin]-2′-yl)amino)-N-methylacetamide]
ROCK2
  Kd: 0.01 to 0.099 µM
  ROCK2 Selectivity: ** (50 to 150-fold selectivity for ROCK2)
ROCK1
  Kd: 1 to 9.9 µM

## Fc1cc(CNc2nccc(-c3nccc(C#Cc4ccc5[nH]ncc5c4)n3)n2)ccn1 [Ex. 33, 4-((1H-Indazol-5-yl)ethynyl)-N-((2-fluoropyridin-4-yl)methyl)-[2,4′-bipyrimidin]-2′-amine]
ROCK2
  Kd: < 0.01 µM
  ROCK2 Selectivity: *** (151 to 500-fold selectivity for ROCK2)
ROCK1
  Kd: 1 to 9.9 µM

## Cc1ccc(CNc2nccc(-c3nccc(C#Cc4ccc5[nH]ncc5c4)n3)n2)nc1 [Ex. 24, 4-((1H-Indazol-5-yl)ethynyl)-N-((5-methylpyridin-2-yl)methyl)-[2,4′-bipyrimidin]-2′-amine]
ROCK2
  Kd: < 0.01 µM
  ROCK2 Selectivity: ** (50 to 150-fold selectivity for ROCK2)
ROCK1
  Kd: 0.1 to 0.99 µM

## CN(C)C(=O)CNc1nccc(-c2nccc(C#Cc3ccc4[nH]nc(F)c4c3)n2)n1 [Ex. 46, 2-((4-((3-Fluoro-1H-indazol-5-yl)ethynyl)-[2,4′-bipyrimidin]-2′-yl)amino)-N,N-dimethylacetamide]
ROCK2
  Kd: 0.01 to 0.099 µM
  ROCK2 Selectivity: ** (50 to 150-fold selectivity for ROCK2)
ROCK1
  Kd: 1 to 9.9 µM

## Fc1ccc(CNc2nccc(-c3nccc(C#Cc4cc(F)c5[nH]ncc5c4)n3)n2)nc1 [Ex. 36, 4-((7-Fluoro-1H-indazol-5-yl)ethynyl)-N-((5-fluoropyridin-2-yl)methyl)-[2,4′-bipyrimidin]-2′-amine]
ROCK2
  Kd: 0.01 to 0.099 µM
  ROCK2 Selectivity: ** (50 to 150-fold selectivity for ROCK2)
ROCK1
  Kd: 1 to 9.9 µM

## O=C(CNc1nccc(-c2nccc(C#Cc3ccc4[nH]ncc4c3)n2)n1)N1CCCC1 [Ex. 52, 2-((4-((1H-Indazol-5-yl)ethynyl)-[2,4′-bipyrimidin]-2′-yl)amino)-1-(pyrrolidin-1-yl)ethanone]
ROCK2
  Kd: < 0.01 µM
  ROCK2 Selectivity: ** (50 to 150-fold selectivity for ROCK2)
ROCK1
  Kd: 0.1 to 0.99 µM
